Reference: patent US20250127857A1, “A COMPOSITION COMPRISING IL-36 AND/OR IL-18 FOR USE IN TREATING OCULAR DISORDERS” (THE PROVOST, FELLOWS, FOUNDATION SCHOLARS, & THE OTHER …, priority 2021, published 2025)

What was measured:
HRMEC [1] = assay: Wound healing (scratch) assay in HRMEC, IL-18; assay type: cell-based, human; settings: for mean difference in wound closure vs no treatment (xdiff): IL-18, VEGF, bFGF each 50 ng/ml, closure expressed as % closure
Procedure: FIG. 16 illustrates HRMEC migration in response to IL-18 and IL-1α stimulation, wherein confluent HRMEC monolayers were scratched with a pipette tip and treated with IL-18 (50 ng/ml) or IL-1α (10 ng/ml) along with bFGF (50 ng/ml) or VEGF (50 ng/ml) as positive controls, wherein images were taken immediately following scratch (0 hrs) and at 4, 8 and 24 hours following scratch, wherein images were analysed using ImageJ imaging software, wherein data are presented as mean±SEM of 6 separate experiments in triplicate, wherein data were analysed using 2way ANOVA with Dunnett's multiple comparison test. (*p<0.05, *p<0.01, ****p<0.0001);
Cells were seeded on to a 12-well plate and grown until they reached confluency. 24 hours prior to the scratch, culture medium was replaced with 0.5% Serum media without supplements for 24 hours to induce cell quiescence. Cell monolayers were scratched once down the centre of the well using a p200 pipette tip and washed once with warmed DPBS to remove debris then replaced with 0.5% serum supplemented media with experimental treatments. Images were acquired using an Olympus IX51 inverted microscope with Cell^A imaging software (Olympus). Images were taken at baseline immediately following scratch and at suitable timepoints for up to 24 (HRMECs) or 48 hours (BMVECs). The area within the scratch was quantified using ImageJ software, and each timepoint was normalised to its baseline and expressed as % closure.

HRMEC [2] = assay: MTS assay of HRMEC proliferation with VEGF and IL-18; assay type: cell-based, human
Procedure: FIG. 17 illustrates HRMEC proliferation in response to VEGF is enhanced with IL-18 pre-treatment, wherein HRMECs were treated with increasing concentrations of VEGF alone or with a 24 hour pre-treatment of IL-18 at 10, 100 or 1000 ng/ml, wherein increasing VEGF induced an increase in cell proliferation which was enhanced following IL-18 treatment;
Cell viability was assessed using the CellTiter 96 AQueous One Solution cell proliferation MTS assay (Promega) as per the manufacturer's instructions. Cell monolayers were treated for times indicated where treatment supplemented media was then removed and incubated with 20 μl of CellTiter 96 AQueous One Solution in 100 μl of complete growth medium in a humidified incubator at 37° C. with 5% CO2for 1-4 hours. The absorbance of each well was measured at 490 nm using a SynergyMX plate reader (Biotek, Gen5™).

[3] = tested on: human ocular choroidal fibroblasts (HOCFs); assay: Activation of human ocular choroidal fibroblasts (vimentin/phalloidin staining); assay type: cell-based; settings: IL-18 increasing doses, 8 h
Procedure: (§1) FIG. 20 illustrates IL-18 activates human ocular choroidal fibroblasts and inhibits VEGF secretion, wherein (A) is human ocular choroidal fibroblast (HOCFs) treated with IL-18 at increasing doses for 8 h, wherein cells were fixed and stained with antibody targeting intermediate filament vimentin (red), Hoechst (blue) and phalloidin (green); (B) is HOCFs treated with IL-18 (100 ng/ml) over 60 mins and immunoblotted for phospho-ERK and phospo-p65 with B-actin and GAPDH as controls; (C) is HOCFs treated with IL-18 (100 ng/ml) over 24 h as indicated, wherein cells were analysed for VEGF expression by qPCR (D) is HOCFs treated with 10, 100 or 1000 ng/ml of IL-18 as indicated over 48 h and cell death was analysed by LDH assay;

VEGF = VEGF in HOCFs treated with IL-18; assay type: cell-based, human; settings: IL-18 100 ng/ml over 24 h
Procedure: as §1

[4] = tested on: human ocular choroidal fibroblasts (HOCFs); assay: LDH assay of HOCF cell death; assay type: cell-based; settings: HOCFs, 10, 100 or 1000 ng/ml IL-18 over 48 h
Procedure: as §1

bone marrow derived MSCs = assay: Bone marrow derived mesenchymal stem cell activation (confocal microscopy); assay type: cell-based, mouse; settings: IL-18 250 ng/ml, 8 h
Procedure: FIG. 21 illustrates IL-18 activates bone marrow derived mesenchymal stem cells, wherein bone marrow derived MSC's were treated with IL-18 at 250 ng/ml for 8 h and images using confocal microscopy, wherein cells were stained with phalloidin for F-actin, vimentin, smooth muscle actin (SMA) and collagen 1;
The femurs from mice were isolated and, using a 20 ml syringe, the bones were flushed with DMEM into a cell culture dish. The flushings were centrifuged for 5 minutes at 1000 rpm. The supernatant was poured off and resuspended in 1 ml of 15% FBS and aMEM media, and filtered through a 70 um nylon mesh into a 50 ml captube. A further 5 ml of 15% FBS and aMEM were added through the mesh tube into the same 50 ml cap tube, and plated in a TC coated dish and cultured in an incubator for 5 days. On Day 5, the dish was washed with PBS 3 times (using PBS with no magnesium or calcium),trypsinized and the trypsin pipetted onto the plate to break up the colonies. 10mis of 10% FBS and DMEM were added and the cells collected in a 50 ml cap tube and this process was repeated once more, centrifuged for 5 mins at 1000 rpm, supernatant poured off, cells resuspended in 1 ml of DMEM and 20% FBS, and plated in a T75 and fed every second day until cells were confluent. When cells were confluent, they were split 1 in 3.

[5] = tested on: laser induced CNV in WT mice; assay: Mesenchymal cell infiltration/activation after laser induced CNV, 3 days; assay type: in vivo, mouse
Procedure: FIG. 22 illustrates increased mesenchymal cell infiltration/activation in animals injected with IL-18 intrperitoneally, wherein WT mice underwent laser induced CNV and were injected IP with IL-18 (100 ug/kg), wherein 3 days later eyes were enucleated, flatmounts were stained with F4/80, vimentin and isolectin and imaged by confocal microscopy;
FIG. 23 illustrates increased mesenchymal cell infiltration/activation in animals injected with IL-18 intra-vitreally, wherein WT mice underwent laser induced CNV and were injected intravitreally with IL-18 (0.3ng/eye), wherein 3 days later eyes were enucleated, flatmounts were stained with F4/80, vimentin and isolectin and imaged by confocal microscopy;

[6] = tested on: laser induced CNV in WT mice; assay: Fibrovascular scarring after laser induced CNV, 14 days; assay type: in vivo, mouse; settings: IL-18 0.3ng/eye intravitreally, vs vehicle control
Procedure: FIG. 24 illustrates IL-18 reduces the area of fibrovascular scarring, wherein WT mice underwent laser induced CNV and were injected intravitreally with IL-18 (0.3ng/eye), wherein 14 days later eyes were enucleated, flatmounts were stained with F4/80, vimentin and isolectin and imaged by confocal microscopy; and […]

## IL-18: recombinant human IL-18 (SB-485232; GSK)
HRMEC [1]; 8 hours post scratch
  mean difference in wound closure vs no treatment (xdiff): −0.99
HRMEC [1]; 24 hours post scratch
  mean difference in wound closure vs no treatment (xdiff): −12.58
HRMEC [1]; IL-18 50 ng/ml, vs no treatment control
  rate of wound closure: significantly increased the rate of wound closure
HRMEC [2]
  HRMEC proliferation, IL-18 alone: able to enhance HRMEC proliferation
HRMEC [2]; 24 hour pre-treatment with IL-18 at 10, 100 or 1000 ng/ml
  VEGF induced proliferation after IL-18 pre-treatment: VEGF induced proliferation was increased
[3]
  HOCF activation / morphology: activates HOCFs causing them to change morphology
VEGF
  baseline secretion of VEGF from HOCFs: strongly reduces the baseline secretion of VEGF
[4]
  HOCF death (LDH assay): does not cause HOCF death and may enhance HOCF viability
Bone marrow derived MSCs
  appearance of vimentin and SMA in MSCs: strong effect on the appearance of vimentin and SMA
  collagen in MSCs: increased collagen in MSCs
[5]; IL-18 0.3ng/eye intravitreally
  vimentin staining at CNV lesion: driving vimentin positive cells to encapsulate the neovascular lesion
[5]; IL-18 100 ug/kg intra-peritoneally
  vimentin staining at CNV lesion: increased vimentin
[6]
  vimentin positive staining (area of fibrovascular scarring): less vimentin positive staining
